ChEMBL document CHEMBL1141186, “2-(Benzimidazol-2-yl)quinoxalines: a novel class of selective antagonists at human A(1) and A(3) adenosine receptors designed by 3D database searching” (J Med Chem, 2005)

Key:
Format in all cases: cell-based
[1] = target: Adenosine receptor A2a (Homo sapiens, UniProt P29274); assay: Displacement of [3H]NECA from human adenosine A2A receptor expressed in CHO cells
[2] = target: T1, Adenosine receptor A1 (Homo sapiens, UniProt P30542); assay: Displacement of [3H]DPCPX from human adenosine A1 receptor expressed in CHO cells
T1 sequence (P30542 whole entry): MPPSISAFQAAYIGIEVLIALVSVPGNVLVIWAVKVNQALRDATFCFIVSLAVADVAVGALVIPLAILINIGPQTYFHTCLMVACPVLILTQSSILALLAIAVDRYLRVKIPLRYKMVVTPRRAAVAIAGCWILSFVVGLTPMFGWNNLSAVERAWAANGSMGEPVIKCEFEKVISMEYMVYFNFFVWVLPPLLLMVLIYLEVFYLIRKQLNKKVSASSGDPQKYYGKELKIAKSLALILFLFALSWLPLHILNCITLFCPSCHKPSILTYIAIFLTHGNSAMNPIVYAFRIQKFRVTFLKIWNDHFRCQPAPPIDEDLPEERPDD

[3] = target: T2, Adenosine receptor A3 (Homo sapiens, UniProt P0DMS8); assay: Displacement of [125I]AB-MECA from human adenosine A3 receptor expressed in CHO cells
T2 sequence (P0DMS8 whole entry): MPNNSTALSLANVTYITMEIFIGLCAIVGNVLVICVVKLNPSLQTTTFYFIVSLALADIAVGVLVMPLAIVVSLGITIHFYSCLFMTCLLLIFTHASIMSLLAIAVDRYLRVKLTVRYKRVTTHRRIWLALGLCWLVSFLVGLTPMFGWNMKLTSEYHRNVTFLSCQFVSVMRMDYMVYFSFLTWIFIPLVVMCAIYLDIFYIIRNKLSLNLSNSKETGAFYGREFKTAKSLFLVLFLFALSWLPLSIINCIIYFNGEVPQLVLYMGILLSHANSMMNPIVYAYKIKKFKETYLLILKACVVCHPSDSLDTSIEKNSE

Adenosine receptor A2a, sequence (P29274 whole entry): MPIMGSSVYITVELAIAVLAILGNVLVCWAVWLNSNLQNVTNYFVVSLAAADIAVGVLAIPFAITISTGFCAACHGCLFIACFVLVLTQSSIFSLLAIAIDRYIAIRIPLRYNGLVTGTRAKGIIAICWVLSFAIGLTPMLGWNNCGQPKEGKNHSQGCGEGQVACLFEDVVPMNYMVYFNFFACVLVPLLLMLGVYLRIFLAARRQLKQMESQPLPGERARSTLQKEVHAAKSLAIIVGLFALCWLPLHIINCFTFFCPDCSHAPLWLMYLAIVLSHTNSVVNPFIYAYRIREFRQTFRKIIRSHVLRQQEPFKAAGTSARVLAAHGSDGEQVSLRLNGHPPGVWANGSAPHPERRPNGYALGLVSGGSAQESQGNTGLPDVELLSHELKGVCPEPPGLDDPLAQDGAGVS

Structure (SMILES) | Ki [1] [µM] | Ki [2] [µM] | Ki [3] [µM]
Cc1nc2c([nH]1)c1nc(C)[nH]c1c1nc(C)[nH]c21 | > 10 | > 10 | –
Oc1c2nnnc-2nc2sccn12 | > 10 | > 10 | > 1
c1ccc(-c2nnc(-c3ccccn3)[nH]2)nc1 | > 10 | > 10 | –
CC1CSc2nc3nnnc-3c(O)n21 (configuration not stated) | > 10 | > 10 | –
Cc1ccc2[nH]c(-c3cnc4ccccc4n3)nc2c1 | > 10 | > 10 | > 1
Oc1c2nnnc-2nc2n1CCCS2 | > 10 | > 10 | 0.437
Clc1cccc2nc(-c3cnc4ccccc4n3)[nH]c12 | > 10 | 0.35 | 0.14
Cc1cc2nc(-c3cnc4ccccc4n3)[nH]c2cc1C | > 10 | > 10 | 0.37
O=[N+]([O-])c1cccc2[nH]c(-c3cnc4ccccc4n3)nc12 | > 10 | > 10 | 0.879
c1ccc2nc(-c3nc4ncncc4[nH]3)cnc2c1 | > 10 | > 10 | > 1
Oc1c2nnnc-2nc2n1CCS2 | > 10 | > 10 | > 1
COc1ccc2nc(-c3cnc4ccccc4n3)[nH]c2c1 | > 10 | > 10 | > 1
c1c[nH]c2nc(-c3cnc4ccccc4n3)nc-2c1 | > 10 | > 10 | > 1

The remaining lines, values ahead:

Ki [1] [µM] | Ki [2] [µM] | Ki [3] [µM] | Structure (SMILES)
> 10 | – | – | O=c1[nH]c2ccccc2nc1-c1cc(Cl)[nH]n1
3.44 | 0.0005 | – | CCSc1cccc2[nH]c(-c3cnc4ccccc4n3)nc12
0.561 | 0.05 | – | c1ccc2nc(-c3nc4ccccc4[nH]3)cnc2c1
3 | 0.0021 | 0.278 | CSc1cccc2nc(-c3cnc4ccccc4n3)[nH]c12
> 10 | > 10 | 0.632 | Clc1ccc2[nH]c(-c3cnc4ccccc4n3)nc2c1
0.72 | 0.046 | 0.104 | CCc1nc2c([nH]1)c1nc(CC)[nH]c1c1nc(CC)[nH]c21
0.329 | 0.966 | 0.135 | CCc1nc2c([nH]1)c1nc(C)[nH]c1c1nc(CC)[nH]c12
0.833 | 8 | – | Cc1cccc2[nH]c(-c3cnc4ccccc4n3)nc12
> 10 | 0.496 | 0.147 | CCc1nc2c3[nH]c(C)nc3c3nc(C)[nH]c3c2[nH]1
> 10 | 0.0093 | 0.699 | Clc1cc(Cl)c2[nH]c(-c3cnc4ccccc4n3)nc2c1
> 10 | > 10 | 0.168 | c1ccc2nc(-c3nc4cc[nH]cc-4n3)cnc2c1
> 10 | 0.0036 | 0.238 | Cc1cc(Cl)cc2[nH]c(-c3cnc4ccccc4n3)nc12
